Measured values reported in patent publication US20220348590A1, “CYCLOOXYGENASE-2 INHIBITORS AND USES THEREOF” (The Board Institute, Inc., priority 2019, published 2022).
Read-outs that look alike come from different tables or passages of the source.

Key:
ovine COX-1 (oCOX-1) = molecular target: T1, ovine COX-1 (oCOX-1) (Ovis aries, UniProt P05979); experiment: LCMS-based COX-1 enzymatic inhibition assay (PGE2 quantification); type: biochemical
T1 construct: purchased Cayman Chemicals (Ann Arbor, Mich.)
T1 sequence (P05979 25-600): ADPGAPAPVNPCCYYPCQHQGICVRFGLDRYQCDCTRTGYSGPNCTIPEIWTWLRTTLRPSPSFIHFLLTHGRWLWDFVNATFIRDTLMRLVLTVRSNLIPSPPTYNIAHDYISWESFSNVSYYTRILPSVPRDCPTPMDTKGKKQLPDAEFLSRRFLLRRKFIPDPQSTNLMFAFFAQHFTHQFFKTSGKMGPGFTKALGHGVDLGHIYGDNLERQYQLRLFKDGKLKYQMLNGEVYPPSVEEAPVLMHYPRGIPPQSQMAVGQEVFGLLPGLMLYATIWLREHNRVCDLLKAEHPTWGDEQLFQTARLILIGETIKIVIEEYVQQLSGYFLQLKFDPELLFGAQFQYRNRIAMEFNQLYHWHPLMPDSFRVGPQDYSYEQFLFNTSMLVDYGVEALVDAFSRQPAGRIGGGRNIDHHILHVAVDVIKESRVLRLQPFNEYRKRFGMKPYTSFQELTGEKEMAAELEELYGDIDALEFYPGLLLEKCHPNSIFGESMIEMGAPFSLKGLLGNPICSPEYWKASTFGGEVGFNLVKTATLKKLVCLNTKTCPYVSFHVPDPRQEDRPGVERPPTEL
Method: We have adapted a previously reported cyclooxygenase enzymatic assay utilizing LCMS quantification of PGE2 as the product of COX-1 and COX2 catalyzed conversion of arachidonic acid to evaluate the binding properties of newly synthesized ligands [Cao, 2011]. These optimized and miniaturized (384-well plates) LCMS-based COX-1 and COX2 enzymatic assays enabled us to quickly evaluate newly synthesized ligands for COX2 binding affinity and selectivity vs COX-1. Using a shorter ligand-enzyme incubation time in the LCMS assay (2 minutes vs 10 minutes) also permitted us to prioritize ligands with faster binding kinetics. Considering the relatively slow on-rate kinetics of known coxibs, due to their 3-step binding mechanism [Marnett, 2009], we believe that optimizing this critical parameter will be key to the successful development of a COX2 PET tracer. Using these enzymatic assays, we have evaluated>200 newly synthesized ligands against COX2 and >20 ligands against COX-1. Another critical property necessary for a good PET radiotracer is to have low non-specific binding (NSB) to increase the free fraction and maximize the signal to noise ratio. This property can be evaluated using in-vitro protein binding assays, and we have now evaluated>50 newly synthesized ligands in mouse, rat and human plasma protein binding (PPB) assays as well as >15 ligands in a mouse brain protein binding (BPB) assay.
Ovine COX-1 (oCOX-1), ovine COX2 (oCOX2), human recombinant COX2 (hCOX2), arachidonic acid, PGE2, d4-PGD2, and […] (labeled with deuterium atoms at positions 3 and 4) were purchased from Cayman Chemicals (Ann Arbor, Mich.). The cofactors (−)epinephrine and hematin, and the COX inhibitors indomethacin, resveratrol and diclofenac were purchased from Sigma-Aldrich (St. Louis, Mo.). Celecoxib was purchased from 3B PharmaChem International (Wuhan, China). All organic solvents were HPLC grade or better and were purchased from Thermo Fisher (Hanover Park, Ill.). Formic acid was purchased from EMD Chemicals (San Diego, Calif.). Purified water was prepared by using a Millipore Milli-Q purification system (Millipore, Billerica, Mass.). All other chemicals and solvents were ACS reagent grade, unless stated otherwise.
In an Eppendorf tube, 146 μL of 100 mM Tris.HCl (pH 8.0) buffer, 2 μL of 100 μM hematin (co-factor) and 10 μL of 40 mM L-epinephrine (co-factor) were mixed at room temperature. Next, 20 μL of Tris.HCl (pH 8.0) buffer containing 0.2 μg COX2 or 0.1 μg COX-1 (approximately 1 unit of enzyme; 1 unit COX utilizes 1 nmol 02/mg/min at 37° C.) was added, and the solution was incubated at room temperature for 2 min. A 2 μL aliquot of the COX inhibitor in DMSO was added to the enzyme solution and preincubated at 37° C. for 10 min. Negative controls were identical except that 2 μL aliquots of DMSO without inhibitor were used instead.
Each COX reaction was initiated by adding 20 μL of arachidonic acid in Tris.HCl (pH 8.0) buffer to give a final concentration of 5 μM; and the reaction was terminated after 2 min by adding 20 μL of 2.0 M HCl. The surrogate standards d4-PGE2 and d4-PGD2 (10 μL aliquot of 50 ng/mL solution in methanol) were added to correct for errors or degradation during sample handling and for variation in injection volume or instrument response during LC-MS-MS. After 30 min, PGE2, PGD2 and their surrogate standards were extracted from each incubation mixture using 800 μL hexane/ethyl acetate (50:50, v/v). The organic phase was removed, evaporated to dryness, and reconstituted in 100 μL methanol/water (50:50, v/v) for analysis using LC-MS-MS.
The concentration of PGE2 in each sample was measured using LC-MS-MS, and the percent of COX inhibition by each test solution was determined by comparing the amount of PGE2 produced in the experiment with that produced in the negative control incubation. The formation of PGD2 was measured for quality control purposes, since the levels of PGD2 should be proportional to those of PGE2. […]

[1] = molecular target: T2, human recombinant COX2 (hCOX2) (UniProt P35354); experiment: LCMS-based COX2 enzymatic inhibition assay (PGE2 quantification); type: biochemical; parameters: COX2 2 minutes pge2/pge2d4 area ratio Avg; other: 2 minutes; readout pge2/pge2d4 area ratio; average; COX2 2 minutes pge2/pge2d4 area ratio Avg; LLE; average LLE; COX2 2 minutes pge2 area (counts) Avg; readout pge2 area (counts); other: 2 min; "ovine COX2 (oCOX2), human recombinant COX2 (hCOX2)"; details: for IC50: average
T2 sequence (P35354 1-604): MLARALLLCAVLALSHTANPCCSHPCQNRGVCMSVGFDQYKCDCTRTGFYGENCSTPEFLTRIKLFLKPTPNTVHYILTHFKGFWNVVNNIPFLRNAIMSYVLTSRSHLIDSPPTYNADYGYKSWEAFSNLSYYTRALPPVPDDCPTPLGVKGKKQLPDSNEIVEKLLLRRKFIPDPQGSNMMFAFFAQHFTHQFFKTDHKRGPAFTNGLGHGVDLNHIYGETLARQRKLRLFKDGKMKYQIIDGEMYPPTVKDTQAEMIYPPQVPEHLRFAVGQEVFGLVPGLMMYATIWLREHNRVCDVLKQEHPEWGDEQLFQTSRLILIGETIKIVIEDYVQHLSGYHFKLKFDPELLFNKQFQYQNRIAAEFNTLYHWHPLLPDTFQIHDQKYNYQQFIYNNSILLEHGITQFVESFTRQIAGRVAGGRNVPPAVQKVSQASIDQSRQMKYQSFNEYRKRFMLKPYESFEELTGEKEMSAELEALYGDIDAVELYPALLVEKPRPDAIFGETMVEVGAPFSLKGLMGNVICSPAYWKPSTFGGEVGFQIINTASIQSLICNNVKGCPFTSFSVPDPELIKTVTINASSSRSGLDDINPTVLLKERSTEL
Method in brief: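 Ovine COX-1 (0.1 μg) or human recombinant COX2 (0.2 μg) in 100 mM Tris.HCl pH 8.0 with hematin and epinephrine, preincubated with inhibitor 10 min at 37 °C. Reaction with 5 μM arachidonic acid stopped after 2 min with HCl; PGE2 quantified by LC-MS-MS. IC50 from 12 concentrations in triplicate.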

[2] = 10 minutes, readout pge2/pge2d4 area ratio, average LLE
[3] = 10 minutes, readout pge2/pge2d4 area ratio, average, read-out: COX1 10 minutes pge2/pge2d4 area ratio Avg. IC50
[4] = 10 minutes, readout pge2 area (counts), average LLE
[5] = 10 minutes, readout pge2 area (counts), average, read-out: COX1 10 minutes pge2 area (counts) Avg. IC50
[6] = 2 minutes, readout pge2/pge2d4 area ratio, average LLE
[7] = 2 minutes, readout pge2/pge2d4 area ratio, read-out: COX2 2 minutes pge2/pge2d4 area ratio Avg. IC50
[8] = 2 minutes, readout pge2 area (counts), average LLE
[9] = 2 minutes, readout pge2 area (counts), read-out: COX2 2 minutes pge2 area (counts) Avg. IC50
[10] = 10 minutes, pge2/pge2d4 area ratio, head of this section not shown, inferred
[11] = 10 minutes, pge2 area (counts), head of this section not shown, inferred
[12] = 10 minutes, pge2 area (counts), head of this section not shown, inferred, read-out: COX1 10 minutes pge2 area (counts) Avg. IC50

SMILES	COX1 10 minutes pge2/pge2d4 area ratio Avg. LLE (ovine COX-1 (oCOX-1); [2])	IC50 (ovine COX-1 (oCOX-1); [3])	COX1 10 minutes pge2 area (counts) Avg. LLE (ovine COX-1 (oCOX-1); [4])	IC50 (ovine COX-1 (oCOX-1); [5])	COX2 2 minutes pge2/pge2d4 area ratio Avg. LLE [1, 6]	IC50 [1, 7]	COX2 2 minutes pge2 area (counts) Avg. LLE [1, 8]	IC50 [1, 9]	COX2 10 minutes pge2 area (counts) Avg. LLE [1, 4]	IC50 ([1]; 10 minutes, readout pge2 area (counts), read-out: COX2 10 minutes pge2 area (counts) Avg. IC50)	COX1 10 minutes pge2/pge2d4 area ratio Avg. LLE (ovine COX-1 (oCOX-1); [10])	COX1 10 minutes pge2 area (counts) Avg. LLE (ovine COX-1 (oCOX-1); [11])	IC50 (ovine COX-1 (oCOX-1); [12])	IC50 (ovine COX-1 (oCOX-1))
COc1cc(-c2ccc(S(C)(=O)=O)cc2)cc(NCc2cccs2)n1 [Compound 54]	0.5171	39200 nM	0.394	52000 nM	3.727	25.5 nM	3.7767	23.8 nM	4.182	9.43 nM				
COc1ncc(NCc2cccs2)nc1-c1ccc(S(C)(=O)=O)nc1 [Compound 60]					5.902	32.3 nM	5.891	33.4 nM			2.694	2.694		52000 nM
CSc1ccc(NCc2cccs2)nc1-c1ccc(S(C)(=O)=O)cc1 [Compound 20]	0.214		0.214		3.9449	10.8 nM	3.942	11.5 nM						52000 nM
CS(=O)(=O)c1ccc(-c2ccc3cnn(Cc4cccs4)c3n2)cc1 [Compound 63]		1990 nM			3.897	35.1 nM	3.961	27.1 nM			2.0906	2.128	1830 nM	
CS(=O)(=O)c1ccc(-c2cc(F)cc(OCc3cccs3)n2)cc1 [Compound 6]	1.694	2860 nM	1.673	3000 nM	4.364	6.26 nM	4.247	8.2 nM						
CS(=O)(=O)c1ccc(-c2cncc(OCc3ccoc3)n2)cc1 [Compound 58]		34400 nM			5.691	31 nM	5.691	30.9 nM			2.5036	2.324		
CS(=O)(=O)c1ccc(-c2ccc(F)c(OCc3cccs3)n2)cc1 [Compound 45]	1.328	6640 nM	1.301	7060 nM	3.877	20 nM	3.805	23.2 nM						
CS(=O)(=O)c1ccc(-c2cccc(NCc3ccsc3)n2)cc1 [Compound 11]			0.8485	42800 nM	4.584	8.42 nM	4.6244	8.13 nM						

Further lines, with some results ahead:

COX1 10 minutes pge2/pge2d4 area ratio Avg. LLE (ovine COX-1 (oCOX-1); [2])	IC50 (ovine COX-1 (oCOX-1); [3])	COX1 10 minutes pge2 area (counts) Avg. LLE (ovine COX-1 (oCOX-1); [4])	IC50 (ovine COX-1 (oCOX-1); [5])	COX2 2 minutes pge2/pge2d4 area ratio Avg. LLE [1, 6]	IC50 [1, 7]	COX2 2 minutes pge2 area (counts) Avg. LLE [1, 8]	IC50 [1, 9]	COX2 10 minutes pge2 area (counts) Avg. LLE [1, 4]	IC50 ([1]; 10 minutes, readout pge2 area (counts), read-out: COX2 10 minutes pge2 area (counts) Avg. IC50)	COX1 10 minutes pge2/pge2d4 area ratio Avg. LLE (ovine COX-1 (oCOX-1); [10])	COX1 10 minutes pge2 area (counts) Avg. LLE (ovine COX-1 (oCOX-1); [11])	IC50 (ovine COX-1 (oCOX-1); [12])	SMILES	IC50 (ovine COX-1 (oCOX-1))
	37800 nM			3.33	52 nM	3.382	45.5 nM			0.4422			CS(=O)(=O)c1ccc(-n2ccc3cnc(NCc4cccs4)nc32)cc1 [Compound 80]	
	38300 nM			4.034	68.6 nM	4.0886	65.3 nM			1.267	1.134		Cc1ccoc1CNc1cccc(-c2ccc(S(C)(=O)=O)cc2)n1 [Compound 91]	
	45900 nM			4.286	77.9 nM	4.248	86.9 nM			1.498			CS(=O)(=O)c1ccc(-c2cccc(NCc3cncs3)n2)cc1 [Compound 99]	
				1.5751	3760 nM	1.45	4840 nM				0.8637	19300 nM	CSc1ccc(-c2cncc(OCc3cccs3)n2)cc1 [Compound 253]	
